Data from patent publication US20260324646A1, “BIOLOGICAL COMPOSITION FOR USE AGAINST PLANT FUNGICIDAL INFECTIONS” (UNIVERSITA' DEGLI STUDI DI MILANO, priority 2023, published 2026).

Assays:
[1] = system: Alternaria sp. and B. caroliniana; assay: In vitro growth inhibition of phytopathogenic fungi on PDA (radial growth rate, 12-day effect); type: cell-based, Alternaria sp.; Botrytis caroliniana; conditions: for radial growth rate (Kr): PDA, 27±1° C.
Procedure: The phytopathogenic fungus Alternaria sp. was isolated in December 2021 from a vineyard in Oltrepo pavese (Santa Maria della Versa, Pavia, Italy).
In addition to Alternaria sp., experiments were also carried out on the fungus Botrytis caroliniana.
(§1) The fungal strains were maintained on potato dextrose agar (PDA, Merck kGaA, Darmstadt, Germany) at 4±1° C. and regularly subcultured. Plants of Solanum lycopersicum (cultivar Rio Grande) were sprouted in the greenhouse of the Fondazione dell'Università di Milano Filarete (Milan, Italy) under controlled conditions (T=18/25±1° C. (night/day), humidity ≥90%, photoperiod 16 h light:8 h dark). Determination of in vitro growth inhibition caused by mixtures of CA, BA, CaCl2 and the compositions of the invention was performed by measuring the diameter and calculating the radial growth rate (Kr, mm/h). The diameter growth of the fungi was determined daily, in six repetitions, using the Image J program (Copyright© 1993, 2018, Oracle).
The fungal cultures were carried out in Petri dishes (6 Well Cell Culture Plates, Sigma-Aldrich). The media treated with the compositions of the invention were inoculated with mycelial caps (diameter 7 mm) of growing active fungal strains (e.g., Alternaria sp. and B. caroliniana). The control cultures are carried out on PDA support and compared with those conducted on CA, BA, CaCl2 and on compositions according to the invention. The media was sterilized at 121° C. for 20 min. Incubation was carried out at 27±1° C. for 12 days in a static incubator (Memmert GmbH+Co. KG, Schwabach, Germany).
The results are shown in FIG. 1 (a) PDA control; b) PDA substrate containing citric acid).

[2] = system: S. lycopersicum plants; assay: Phytotoxicity to treated plants in the in vivo experiments; design: species or system Solanum lycopersicum (cultivar Rio Grande); conditions: BA 3X (4.8 mM), sprayed 24 hours after infection
Procedure: as §1
S. lycopersicum plants were infected by […] the spores of the pathogenic fungus Alternaria sp. on the attached leaves and stem. Alternaria sp. spores were obtained by dropping 20 mL of sterile H2O into a culture of the fungus in a Petri dish. The inoculum was calculated after enumerating the spores under light microscope using a counting chamber device and the concentration was 3.1×10^6 spores/mL. 24 hours after infection, the attached leaves were sprayed with the compositions of the invention. The plants were infected and untreated, or treated with CA mixtures or with the compositions of the invention 24 hours after infection with Alternaria sp. […]

OB(O)O [BA, Boric acid]
radial growth rate (Kr) ([1]; BA 1X (1.6 mM)): 0.115 mm/h | radial growth rate (Kr) ([1]; BA 3X (4.8 mM)): 0.051 mm/h | Effect (12 days from cultivation) ([1]; BA 5X (8.0 mM)): − | radial growth rate (Kr) ([1]; BA 5X (8.0 mM)): 0.003 mm/h | Effect (8 days after infection): toxicity for the plant [2]: Toxic for the plant

O=C(O)CC(O)(CC(=O)O)C(=O)O [CA, Citric acid]
radial growth rate (Kr) ([1]; CA 1X (0.01M)): 0.099 mm/h | radial growth rate (Kr) ([1]; CA 2X (0.02M)): 0.028 mm/h | radial growth rate (Kr) ([1]; CA 3X (0.03M)): 0.034 mm/h | radial growth rate (Kr) ([1]; CA 5X (0.05M)): 0.012 mm/h | radial growth rate (Kr) ([1]; CA 7X (0.07M)): 0.020 mm/h | Effect (12 days from cultivation) ([1]; CA 10X (0.1M)): − | radial growth rate (Kr) ([1]; CA 10X (0.1M)): 0.000 mm/h | Effect (12 days from cultivation) ([1]; CA 105X (1M)): − | radial growth rate (Kr) ([1]; CA 105X (1M)): 0.000 mm/h

[Ca+2].[Cl-].[Cl-] [CaCl2, Calcium chloride]
Effect (12 days from cultivation) ([1]; CaCl2 1X (0.45 mM)): +++++ | radial growth rate (Kr) ([1]; CaCl2 1X (0.45 mM)): 0.214 mm/h | Effect (12 days from cultivation) ([1]; CaCl2 2X (0.90 mM)): +++++ | radial growth rate (Kr) ([1]; CaCl2 2X (0.90 mM)): 0.221 mm/h | radial growth rate (Kr) ([1]; CaCl2 3X (1.4 mM)): 0.077 mm/h
